Assay results from the supplement of paper PMC10307832.

How the values were obtained:
Experiment in all cases: relative viability (nuclei count vs DMSO), 5 days (fraction); higher = more cells survive
[1] = compound: CCn1c(-c2nonc2N)nc2c(C#CC(C)(C)O)ncc(OC[C@H]3CCCNC3)c21 + Nc1ncn([C@H]2C[C@H](O)[C@@H](CO)O2)c(=O)n1 [Decitabine] (partner 2 µM)
Method in brief: (§1)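 Medians of duplicate plates are given as relative viability. That measure is the nuclei count in treated wells divided by the count in vehicle wells. Counts were taken on 4× images of lung cancer cell lines in 1536-well plates, 5 days after pin-tool dosing the day after seeding with one drug alone or a fixed anchor-drug dose plus five library-drug doses (not always all listed) in √10 steps.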

BAM7 + Lapatinib = compound: CCOC1=CC=CC=C1N=NC2=C(NN(C2=O)C3=NC(=CS3)C4=CC=CC=C4)C [BAM7] + CS(=O)(=O)CCNCc1ccc(-c2ccc3ncnc(Nc4ccc(OCc5cccc(F)c5)c(Cl)c4)c3c2)o1 [Lapatinib] (partner 2 µM)
Method in brief: as §1

[2] = compound: CCn1c(-c2nonc2N)nc2c(C#CC(C)(C)O)ncc(OC[C@H]3CCCNC3)c21 + Cc1cc(Nc2cc(N3CCN(C)CC3)nc(Sc3ccc(NC(=O)C4CC4)cc3)n2)n[nH]1 [Tozasertib] (partner 0.1 µM)
Method in brief: as §1

BAM7 + Olaparib = compound: CCOC1=CC=CC=C1N=NC2=C(NN(C2=O)C3=NC(=CS3)C4=CC=CC=C4)C [BAM7] + O=C(c1cc(Cc2n[nH]c(=O)c3ccccc23)ccc1F)N1CCN(C(=O)C2CC2)CC1 [Olaparib] (partner 8 µM)
Method in brief: as §1

| Cell Line | relative viability ([1]; first compound 0.01 µM) | relative viability ([1]; first compound 0.03162 µM) | relative viability ([1]; first compound 0.1 µM) | relative viability ([1]; first compound 0.3162 µM) | relative viability ([1]; first compound 1 µM) | relative viability (BAM7 + Lapatinib; first compound 0.5 µM) | relative viability (BAM7 + Lapatinib; first compound 5 µM) | relative viability (BAM7 + Lapatinib; first compound 15.81 µM) | relative viability (BAM7 + Lapatinib; first compound 50 µM) | relative viability ([2]; first compound 0.01 µM) | relative viability ([2]; first compound 0.03162 µM) | relative viability ([2]; first compound 0.1 µM) | relative viability ([2]; first compound 0.3162 µM) | relative viability ([2]; first compound 1 µM) | relative viability (BAM7 + Olaparib; first compound 0.5 µM) | relative viability (BAM7 + Olaparib; first compound 5 µM) | relative viability (BAM7 + Olaparib; first compound 15.81 µM) | relative viability (BAM7 + Olaparib; first compound 50 µM) |
| --- | --- | --- | --- | --- | --- | --- | --- | --- | --- | --- | --- | --- | --- | --- | --- | --- | --- | --- |
| 201T | 0.879 | 0.822 | 0.888 | 0.837 | 0.866 | 1.05 | 1.04 | 0.973 | 1.02 | 0.954 | 0.948 | 0.914 | 0.933 | 0.963 | 0.774 | 0.746 | 0.691 | 0.765 |
| A549 | 0.207 | 0.202 | 0.292 | 0.27 | 0.215 | 1.08 | 1.05 | 1.03 | 0.924 |  |  |  |  |  | 0.323 | 0.319 | 0.432 | 0.476 |
| A-427 | 0.558 | 0.61 | 0.589 | 0.54 | 0.562 | 1.01 | 1.09 | 1.03 | 1.09 | 0.243 | 0.227 | 0.251 | 0.24 | 0.188 | 0.707 | 0.736 | 0.756 | 0.762 |
| ABC-1 | 1.18 |  | 1.2 | 0.97 | 1.02 |  | 1.24 | 1.16 | 1.36 | 0.167 | 0.169 | 0.176 | 0.151 | 0.154 | 0.765 | 1.25 | 0.638 | 0.559 |
| BEN | 0.682 | 0.693 | 0.569 | 0.67 | 0.782 | 0.754 | 0.72 | 0.676 | 0.836 | 0.588 | 0.481 | 0.476 | 0.53 | 0.515 | 1.2 | 1.09 | 0.809 | 1.04 |
| CAL-12T |  |  |  |  |  | 0.677 | 0.581 | 0.599 | 0.692 | 0.351 | 0.354 | 0.303 | 0.309 | 0.298 | 0.764 | 0.653 | 0.652 | 0.711 |
| COR-L23 | 0.429 | 0.353 | 0.348 | 0.352 | 0.38 | 1.28 | 1.14 | 0.914 | 1.02 | 0.202 | 0.19 | 0.235 | 0.188 | 0.18 | 0.379 | 0.343 | 0.332 | 0.346 |
| COR-L 105 | 0.651 | 0.681 | 0.651 | 0.749 | 1.58 | 0.357 | 0.355 | 0.382 | 0.44 | 0.31 | 0.432 | 0.407 | 0.367 | 0.374 | 0.806 | 0.746 | 0.665 | 0.707 |
| Calu-6 |  |  |  |  |  | 1.06 | 1.09 | 1.05 | 1.07 |  |  |  |  |  | 0.552 | 0.598 | 0.53 | 0.531 |
| ChaGo-K-1 | 0.483 | 0.5 | 0.559 | 0.487 | 0.533 |  |  |  |  | 0.216 | 0.245 | 0.228 | 0.248 | 0.248 | 0.377 | 0.377 | 0.292 | 0.396 |
| EBC-1 |  |  |  |  |  | 0.203 | 0.248 | 0.233 | 0.251 |  |  |  |  |  | 0.712 | 0.644 | 0.626 | 0.763 |
| EKVX | 0.325 | 0.37 | 0.369 | 0.347 | 0.337 | 0.199 | 0.201 | 0.192 | 0.507 | 0.341 | 0.37 | 0.416 | 0.405 | 0.368 | 0.863 | 0.929 | 0.839 | 0.788 |
| EMC-BAC-2 | 0.966 |  | 0.996 | 0.916 | 1.04 | 0.943 | 0.936 | 0.962 | 0.968 | 0.297 | 0.287 | 0.268 | 0.255 | 0.262 | 0.485 | 0.476 | 0.469 | 0.565 |
| EPLC-272H | 0.413 | 0.378 | 0.349 | 0.347 | 0.356 | 0.879 | 0.924 | 0.94 | 0.963 | 0.337 | 0.512 | 0.261 | 0.186 | 0.274 | 0.465 | 0.935 | 0.594 | 0.651 |
| H3255 | 0.614 | 0.58 | 0.639 | 0.546 | 0.6 | 0.251 | 0.242 | 0.247 | 0.278 | 0.549 | 0.646 | 0.63 | 0.547 | 0.615 | 0.597 | 0.666 | 0.417 | 0.405 |
| HARA | 0.508 | 0.486 | 0.656 | 0.551 | 0.498 | 0.68 | 0.777 | 0.682 | 0.793 | 0.13 | 0.106 | 0.143 | 0.0993 | 0.109 | 0.96 | 0.838 | 0.827 | 0.809 |
| HCC-15 | 0.695 | 0.648 | 0.637 | 0.558 | 0.571 | 0.912 | 0.896 | 0.908 | 0.865 | 0.393 | 0.439 | 0.338 | 0.427 | 0.384 | 0.849 | 0.695 | 0.687 | 0.728 |
| HCC-44 | 0.957 | 0.888 | 0.902 | 0.968 | 0.985 | 1.09 | 1.02 | 1 | 0.983 |  |  | 1.08 | 0.79 | 1.08 | 0.986 | 0.952 | 0.883 | 0.987 |
| HCC-78 | 0.628 | 0.627 | 0.674 | 0.709 | 0.543 | 0.74 | 0.69 | 0.98 | 1.11 | 0.391 | 0.414 | 0.36 | 0.41 | 0.405 | 1.02 | 0.759 | 0.631 | 0.815 |
| HCC-366 | 0.342 | 0.34 | 0.361 | 0.302 | 0.335 | 1.09 | 1.1 | 1.03 | 0.984 | 0.135 | 0.12 | 0.194 | 0.111 | 0.129 | 0.328 | 0.263 | 0.226 | 0.307 |
